Target: CaMKIIδ (Homo sapiens (Human), UniProt Q13557)
Test: In vitro CaMKIIδ activity assay (coupled assay measuring ADP released, peptide substrate AC3)
Type: biochemical
Conditions: full length C-terminal His/Gln tagged CaMKIIδ construct, 16 nM enzyme, 25° C., duplicate
Method: An exemplary procedure for the in vitro CaMKIIδ inhibition assay, which can be used to determine the inhibitory action of compounds of the invention toward CaMKII, follows. The procedure is taken from Chao L H, et al., (2010) Nat Struct Mol Biol. 17(3): 264-272, which is incorporated herein by reference in its entirety.
The inhibition of CaMKII activity was evaluated using a coupled assay measuring ADP released following ATP hydrolysis and phosphor-transfer to the peptide substrate AC3 (KKALHRQETVDAL; SEQ ID NO: 1) (1). A full length, C-terminal His/Gln tagged CaMKIIδ construct was used (sequence in Table 3 below).
Compounds were added in 5 uL volume to wells in UV transparent 96-well plates (½ area well size). The final compound concentrations tested ranged from 0.5 nM to 10 uM). Assays were performed in duplicate. CaMKIIδ is added to at a final concentration of 16 nM to a mixture containing 100 mM Tris (pH 7.5), 150 mM KCl, 0.27 mM EGTA, 1.3 mM PEP, 0.2 mg/ml AC3, 6.9% (v/v) PK/LDH mixture (Sigma P0294), 0.38 mM NADH and kept on ice. 72 uL of the enzyme mixture was added to the wells containing compounds and the plate was shaken briefly and kept on ice. The assay was initiated by adding 23 uL of a mixture containing 100 mM Tris (pH 7.5), 150 mM KCl, 1.7 mM CaCl2, 48 mM MgCl2, 0.35 mM ATP and 6.7 ug/mL calmodulin. The rate of ADP released was measured as the rate of absorbance decrease at […] at 25° C. and plotted against the log of the compound concentration (FIG. 1). IC50 data were fitted using GraphPad Prism software.

Row | Compound | IC50
1 | c1cc(-c2ccnc3[nH]c4ccccc4c23)nc(N2CCNCC2)c1 [Compound 9j] | ≤ 50 nM
2 | C(#Cc1ccnc2[nH]c3ccccc3c12)CN1CCNCC1 [Compound 9n] | 250 to 1000 nM
3 | c1ccc2c(c1)[nH]c1nccc(-c3cnn(C4CCNCC4)c3)c12 [Compound 9m] | ≥ 1000 nM
4 | Cc1nn(C2CCNCC2)cc1-c1ccnc2[nH]c3ccccc3c12 [Compound 9l] | ≥ 1000 nM
5 | C(=C/c1ccnc2[nH]c3ccccc3c12)/CN1CCNCC1 [Compound 9o] | ≥ 1000 nM
6 | C(=C\c1ccnc2[nH]c3ccccc3c12)/CN1CCNCC1 [Compound 9h] | ≥ 1000 nM
7 | c1ccc2c(c1)[nH]c1nccc(-c3cncc(N4CCNCC4)c3)c12 [Compound 9a] | 250 to 1000 nM
8 | c1ccc2c(c1)[nH]c1nccc(-n3cc(C4CCNCC4)nn3)c12 [Compound 9e] | ≥ 1000 nM
9 | c1ccc2c(c1)[nH]c1nccc(-c3cnc(N4CCNCC4)s3)c12 [Compound 9k] | ≥ 1000 nM

Further lines, results first:

Row | IC50 | Compound
10 | ≥ 1000 nM | Clc1cnccc1-c1ccnc2[nH]c3ccccc3c12 [Compound 8r]
11 | ≥ 1000 nM | c1cc(-c2ccnc3[nH]c4ccccc4c23)cc(-n2ccnc2)c1 [Compound I-2, 4-(3-(1H-imidazol-1-yl)phenyl)-9H-pyrido[2,3-b]indole]
12 | ≤ 50 nM | NCCCOc1cccc(-c2ccnc3[nH]c4ccccc4c23)c1 [Compound I-10, 3-(3-(9H-pyrido[2,3-b]indol-4-yl)phenoxy)propan-1-amine]
13 | ≥ 1000 nM | NCc1cccc(-c2ccnc3[nH]c4ccccc4c23)c1 [Compound I-3]
14 | ≤ 50 nM | COc1ccc2c(c1)[nH]c1nccc(-c3cccc(NCCN)c3)c12 [Compound I-12, N1-(3-(7-methoxy-9H-pyrido[2,3-b]indol-4-yl)phenyl)ethane-1,2-diamine]
15 | ≤ 50 nM | NCCNc1cccc(-c2ccnc3[nH]c4ccc(Cl)cc4c23)c1 [Compound I-14, N1-(3-(6-chloro-9H-pyrido[2,3-b]indol-4-yl)phenyl)ethane-1,2-diamine]
16 | ≤ 50 nM | Cc1ccc2[nH]c3nccc(-c4cccc(NCCN)c4)c3c2c1 [Compound I-13, N1-(3-(6-methyl-9H-pyrido[2,3-b]indol-4-yl)phenyl)ethane-1,2-diamine]
17 | ≤ 50 nM | NCCNc1cccc(-c2ccnc3[nH]c4ccccc4c23)c1 [Compound I-7, N1-(3-(9H-pyrido[2,3-b]indol-4-yl)phenyl)ethane-1,2-diamine]
18 | ≥ 1000 nM | Clc1ccncc1-c1ccnc2[nH]c3ccccc3c12 [Compound 8p]
19 | ≤ 50 nM | NCCOc1cccc(-c2ccnc3[nH]c4ccccc4c23)c1 [Compound I-9, 2-(3-(9H-pyrido[2,3-b]indol-4-yl)phenoxy)ethanamine]
20 | 250 to 1000 nM | c1ccc2c(c1)[nH]c1nccc(-c3cc[nH]c3)c12 [Compound 8q]
